For four compounds, EC50, TIME and Activity results are on record in ChEMBL document CHEMBL1671751, “FRET-based sensors for the human M1-, M3-, and M5-acetylcholine receptors” (Bioorg Med Chem, 2011).

Experiment [1] deals with Muscarinic acetylcholine receptor M3 (Homo sapiens, UniProt P20309). Put plainly: Activation of M3-ACh receptor-FLASH/CFP expressed in HEK293 cells assessed as FRET signal. The class given is cell-based.
Experiment [2] deals with T1, Muscarinic acetylcholine receptor M5 (Homo sapiens, UniProt P08912).
T1 sequence (P08912 whole entry): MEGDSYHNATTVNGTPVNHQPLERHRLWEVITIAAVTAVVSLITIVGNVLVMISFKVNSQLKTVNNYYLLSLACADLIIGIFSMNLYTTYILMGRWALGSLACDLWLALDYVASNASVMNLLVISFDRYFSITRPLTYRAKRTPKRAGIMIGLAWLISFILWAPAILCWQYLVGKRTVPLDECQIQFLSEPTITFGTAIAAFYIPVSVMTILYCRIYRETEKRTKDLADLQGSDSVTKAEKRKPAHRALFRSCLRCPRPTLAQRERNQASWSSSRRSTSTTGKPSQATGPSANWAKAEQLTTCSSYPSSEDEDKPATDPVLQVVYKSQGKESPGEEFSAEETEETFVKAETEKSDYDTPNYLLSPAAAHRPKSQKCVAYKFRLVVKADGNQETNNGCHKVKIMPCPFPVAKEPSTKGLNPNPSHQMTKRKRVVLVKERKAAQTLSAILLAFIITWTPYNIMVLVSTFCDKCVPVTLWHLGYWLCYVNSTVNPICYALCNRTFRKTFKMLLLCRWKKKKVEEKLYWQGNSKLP
The experiment can be described thus: Activation of M5-ACh receptor-FLASH/CFP expressed in HEK293 cells assessed as FRET signal. It counts as cell-based.

In experiment [3] the target is T2, Muscarinic acetylcholine receptor M5 (Homo sapiens) (UniProt P08912).
T2 sequence (whole entry): T1 sequence (P08912 whole entry)
The experiment can be described thus: Agonist activity at M5-ACh receptor-FLASH/CFP expressed in HEK293 cells assessed as half-maximal activation time at 100 uM to 1 mM by FRET method. The class given is functional, cell-based.

The target of experiment [4] is T2, Muscarinic acetylcholine receptor M5 (Homo sapiens). The experiment can be described thus: Agonist activity at M5-ACh receptor-FLASH/CFP expressed in HEK293 cells assessed as rate constant at 100 uM to 1 mM by FRET method. It counts as functional, cell-based.
The target in experiment [5] is T3, Muscarinic acetylcholine receptor M1 (Homo sapiens, UniProt P11229).
T3 sequence (P11229 whole entry): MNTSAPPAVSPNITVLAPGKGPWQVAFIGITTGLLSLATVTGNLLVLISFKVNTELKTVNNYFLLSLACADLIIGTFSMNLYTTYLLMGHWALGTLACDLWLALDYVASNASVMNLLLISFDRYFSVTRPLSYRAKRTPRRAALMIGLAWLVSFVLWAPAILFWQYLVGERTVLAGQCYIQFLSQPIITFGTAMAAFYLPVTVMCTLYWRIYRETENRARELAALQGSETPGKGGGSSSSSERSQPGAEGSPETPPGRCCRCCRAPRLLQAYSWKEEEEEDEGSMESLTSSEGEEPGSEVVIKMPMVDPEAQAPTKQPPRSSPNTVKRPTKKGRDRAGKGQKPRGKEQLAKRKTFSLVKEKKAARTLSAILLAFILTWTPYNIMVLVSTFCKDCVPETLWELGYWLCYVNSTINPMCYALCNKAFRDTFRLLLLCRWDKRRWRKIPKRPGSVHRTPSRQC
The experiment can be described thus: Activation of M1-ACh receptor-FLASH/CFP expressed in HEK293 cells assessed as FRET signal. It counts as cell-based.

SMILES strings stand for the structures.

Muscarinic acetylcholine receptor M3, sequence (P20309 whole entry): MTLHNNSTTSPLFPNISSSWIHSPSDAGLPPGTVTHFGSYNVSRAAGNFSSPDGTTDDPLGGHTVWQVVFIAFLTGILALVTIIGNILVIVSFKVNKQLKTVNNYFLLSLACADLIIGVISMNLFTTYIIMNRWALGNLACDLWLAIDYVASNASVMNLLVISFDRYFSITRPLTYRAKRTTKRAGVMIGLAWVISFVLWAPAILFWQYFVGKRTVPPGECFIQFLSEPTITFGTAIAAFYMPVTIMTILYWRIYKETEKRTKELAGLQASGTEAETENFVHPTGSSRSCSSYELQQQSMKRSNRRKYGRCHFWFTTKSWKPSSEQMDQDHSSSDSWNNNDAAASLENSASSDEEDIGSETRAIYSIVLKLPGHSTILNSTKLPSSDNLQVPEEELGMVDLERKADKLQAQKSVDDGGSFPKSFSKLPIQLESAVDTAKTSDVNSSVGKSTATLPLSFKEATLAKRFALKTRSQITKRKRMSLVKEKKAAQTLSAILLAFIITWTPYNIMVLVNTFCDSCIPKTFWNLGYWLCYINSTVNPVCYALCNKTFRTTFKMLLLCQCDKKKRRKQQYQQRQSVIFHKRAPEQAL

For orientation: EC50 means the midpoint of the concentration-response curve. Turning to `C[C@@H]1O[C@H](C[N+](C)(C)C)C[C@H]1O` [MUSCARINE CHLORIDE], the EC50 was determined as 1000 nM in experiment [1] and 1300 nM in experiment [2]. For the same compound, the TIME in experiment [3] amounted to 2e-05 h. For the same compound, the Activity in experiment [4] came out at 13.9 s⁻¹.
As for `CC(=O)OCC[N+](C)(C)C`, in experiment [3], the TIME was determined as 1.81e-05 h. Moreover, in experiment [4], the Activity is 15.4 s⁻¹.
On to `C[N+](C)(C)CCOC(N)=O`, for which the TIME in experiment [3] is 1.89e-05 h. Also, the Activity in experiment [4] is 14.7 s⁻¹.
In the case of `C[N+](C)(C)CC#CCN1CCCC1=O` [OXOTREMORINE METHIODIDE], the EC50 in experiment [5] was determined as 7400 nM; in experiment [1], 1800 nM; in experiment [2], 2300 nM. The TIME in experiment [3] was found to be 2.89e-05 h. Further, in experiment [4], the Activity is 9.6 s⁻¹.
